Reference: patent publication US12552738B2, “Crystal forms of amino lipids” (ModernaTX, Inc., priority 2017, dated 2026)
“Also recorded” adds a separate entry of the source.

How the values were obtained:
Type in all cases: physicochemical
free base pKa = test: free base pKa
[1] = Dynamic vapor sorption (DVS) isotherm, hygroscopicity; conditions: for water uptake, adsorption isotherm / water uptake, desorption isotherm: 80% relative humidity, 25° C.; for Hygroscopicity/purity decrease: MC3 and MC3 trimesate, water uptake up to 80% RH at 25° C.; for Hygroscopicity / form change after DVS: salts or cocrystals of Compound 1; for Hygroscopicity: DVS isotherm at 25° C.; for form change after DVS: XRPD before and after DVS test at 25° C.
Description: DVS was measured on via a SMS (Surface Measurement Systems) DVS Intrinsic. The relative humidity at 25° C. were calibrated against deliquescence point of LiCl, Mg(NO3)2 and KCl.

[2] = HPLC purity before and after the DVS experiment; conditions: samples prepared with crude and purified free base
Description: Trimesate Type A samples were prepared according to the procedure described in the foregoing, using the crude free base (HPLC purity of 88.5 area %) or purified free base (HPLC purity of 97.6 area %) as starting material, and analyzed by HPLC.

[3] = listed as 4-hydroxybenzoate Polymorph A
[4] = listed as trimellitate Polymorph A

Molecule: CCCCC/C=C\C/C=C\CCCCCCCCC(CCCCCCCC/C=C\C/C=C\CCCCC)OC(=O)CCCN(C)C [MC3, (6Z,9Z,28Z,31Z)-heptatriaconta-6,9,28,31-tetraen-19-yl 4-(dimethylamino)butanoate, reference compound]
- pKa (free base pKa): > 8
- water uptake, adsorption isotherm ([1]; listed as crude free base): 0.24%
- water uptake, adsorption isotherm ([1]; listed as pure free base): 0.14%
- water uptake, desorption isotherm ([1]; listed as crude free base): 0.27%
- water uptake, desorption isotherm ([1]; listed as pure free base): 0.17%
- Hygroscopicity/purity decrease ([1]; listed as crude free base): slightly hygroscopic

Molecule: (6Z,9Z,28Z,31Z)-heptatriaconta-6,9,28,31-tetraen-19-yl 4-(dimethylamino)butanoate trimesate [Trimesate Type A]
- HPLC purity change after the DVS experiment [2]: No significant HPLC purity change
- Hygroscopicity/purity decrease [1]: Non-hygroscopic
- Hygroscopicity/purity decrease ([1]; listed as trimesate Type A): non-hygroscopic (Hygroscopicity concluded using the water uptake up to 80% RH at 25° C.: < 0.2% for non-hygroscopic)
- Hygroscopicity/purity decrease ([1]; listed as trimesate of MC3): non-hygroscopic (Hygroscopicity concluded using the water uptake up to 80% RH at 25° C.: < 0.2% for non-hygroscopic)

Molecule: heptadecan-9-yl 8-((2-hydroxyethyl)amino)octanoate 4-hydroxybenzoate [4-Hydroxybenzoate Polymorph A]
- Hygroscopicity [1]: Non-hygroscopic
- Hygroscopicity [1, 3]: non-hygroscopic
- Hygroscopicity ([1]; listed as 4-hydroxybenzoate of Compound 1): non-hygroscopic
- Hygroscopicity ([1]; listed as Polymorph A of 4-hydroxybenzoate of Compound 1): low hygroscopicity
- form change after DVS [1]: (no)
- form change after DVS [1, 3]: no form change

Molecule: heptadecan-9-yl 8-((2-hydroxyethyl)amino)octanoate orotate [Orotate Polymorph B]
- Hygroscopicity [1]: slightly hygroscopic; also recorded: Hygroscopic

Molecule: heptadecan-9-yl 8-((2-hydroxyethyl)amino)octanoate trimellitate [Trimellitate Polymorph A]
- Hygroscopicity [1]: Slightly hygroscopic
- Hygroscopicity [1, 4]: slightly hygroscopic
- form change after DVS [1]: (no)
- form change after DVS [1, 4]: no form change
